In patent US20110014285A1, “N-ACETYL CYSTEINE COMPOSITIONS AND METHODS TO IMPROVE THE THERAPEUTIC EFFICACY OF ACETAMINOPHEN” (priority 2009, published 2011):

What was measured:
[1] = NAC thiol/disulfide pair; Noszal et al. (2000); cited from earlier work
fever = test: Control of fever refractory to acetaminophen in a pediatric patient; format: in vivo, human; details: standard maximum daily dose of acetaminophen
From the text: A pediatric patient receives a standard maximum daily dose of acetaminophen to control a fever, but the acetaminophen is ineffective. The patient receives the same standard maximum daily dose of acetaminophen in the form of an acetaminophen-N-acetylcysteine composition.

humans = details: cited from earlier work
felines = felines (cat family); cited from earlier work
dogs = details: cited from earlier work
[2] = in vivo; cited from earlier work
[3] = effects counter to those reported for NAC; Samstrand et al (1999); cited from earlier work

SMILES: CC(=O)N[C@@H](CS)C(=O)O [NAC, N-acetylcysteine]
- half-cell potential [1]: about +63 mV

SMILES: CC(=O)Nc1ccc(O)cc1 [acetaminophen, N-acetyl-para-aminophenol]
- control of fever (fever): ineffective
- dose at which toxicity is documented (humans): > 140 mg/kg
- dose at which toxicity and death were demonstrated (felines): 5 to 10 mg/kg
- dose at which toxicity is documented (dogs): > 40 mg/kg
- binding to protein [2]: only slightly
- volume of distribution [2]: 0.9 to 1.0 L/kg

SMILES: CC(=O)N[C@@H](CSSC[C@H](NC(C)=O)C(=O)O)C(=O)O [oxidized form of NAC]
- bioactive dose relative to NAC [3]: 10-100 fold less than NAC
